In PubChem BioAssay AID179 (DTP/NCI, 2004):
Several values for one entry are separate records, joined by “and”; a condition that tells them apart may be missing. Equal entries are not always repeated. Activity calls are given as the source filed them.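 The calls were made as follows: active = compounds giving half or more protection of infected cells from virus-caused growth loss, again on retest; inactive = the rest.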 Where a SMILES comes first, the peptide text is derived from it. The star is where a group is joined. Boc = CC(C)(C)OC(=O)*; OBn = c1ccc(CO*)cc1

Test system: CEM cells HIV-1 protection, formazan growth assay
Experiment: NCI AIDS Antiviral Assay
Details: for IC50: measured here: growth of uninfected CEM cells
Method in brief: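 Protection of CEM cells against HIV-1 was scored from cell growth (soluble formazan) across five concentrations, with parallel uninfected cells. Lack of protection may reflect toxicity.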

Cc1cc(C)nc(NS(=O)(=O)c2ccc(NNc3c4ccccc4nc4c(C(=O)Nc5ccc(S(=O)(=O)N=C(N)N)cc5)cccc34)cc2)n1
EC50: > 200 µM | IC50: 31.6 µM

CN(CCC#N)C1=CCCC1
EC50: > 200 µM | IC50: > 200 µM

COc1ccc(I)c(CCC(C(=O)O)C2=CCC3(CC2)OCCO3)c1 (stereo unspecified)
EC50: > 145 µM | IC50: > 145 µM

O=C1C=C(Nc2cccnc2)c2ccccc2C1=O
EC50: > 20.9 µM | IC50: 18.2 µM

COc1cc(C2C(O)N(C)C(=O)C23CCCN3C)c(Br)cc1Br (stereo unspecified)
outcome: inactive

CCC1CN2CCc3cc(OC)c(OC)cc3C2CC1CC1c2cc(OC)c(OC)cc2CCN1C(=O)C(Cc1c[nH]c2ccccc12)NC(=O)OC(C)(C)C (stereo unspecified)
outcome: inactive

c1cc2nnc1SCCSCCSc1ccc(nn1)SCCSCCS2
EC50: > 200 µM | IC50: > 200 µM

CC(=O)Oc1ccc(-c2cc3ccccc3oc2=O)cc1
EC50: > 200 µM | IC50: 28.2 µM

CCCCCCC(=O)C/C(=N/NC(N)=S)C(=O)NC1C2CC3CC(C2)CC1C3 (stereo unspecified)
EC50: > 219 µM | IC50: > 219 µM

Clc1c2ccccc2[se][n+]1Cc1ccccc1
EC50: > 15.1 µM | IC50: 12.3 µM

CN(C(=O)CC(=O)CP(=O)(c1ccccc1)c1ccccc1)c1ccccc1
EC50: > 200 µM | IC50: 135 µM

CC(=O)[O-].O=[N+]([O-])c1ccc([O-])c(C=NCCN=Cc2cc([N+](=O)[O-])ccc2[O-])c1.[Mn+3]
EC50: > 229 µM | IC50: 4.37 µM

Cc1cc(NC(=O)Nc2cc(F)ccc2F)no1
EC50: > 200 µM | IC50: 123 µM

COc1ccc(N2C(=O)C3c4[nH]c5ccccc5c4C4CCC(C(C)C)CC4C3C2=O)cc1 (stereo unspecified)
EC50: > 100 µM | IC50: 93.3 µM

CC(=O)Oc1ccc2c(=O)c(C(C)=O)coc2c1
outcome: inactive

Cc1cc2c(O)c(c1)CN(Cc1ccccc1)Cc1cc(C)cc(c1O)CN(Cc1ccccc1)Cc1cc(C)cc(c1O)CN(Cc1ccccc1)C2
EC50: > 50.1 µM | IC50: > 50.1 µM

CC(NC(=O)C(Cc1ccccc1)NC(=O)C(Cc1ccccc1)NC(=O)OC(C)(C)C)C(=O)OCc1ccccc1 (stereo not drawn) (Boc-Phe-Phe-Ala-OBn; configuration not given here)
EC50: > 200 µM | IC50: 60.3 µM

CCc1cccc(C(C)CC)c1NC(=O)CC1C(=O)Nc2ccccc2S1(=O)=O (stereo unspecified)
EC50: > 12 µM | IC50: > 12 µM

CN1C(=N\S(=O)(=O)c2ccc(Cl)cc2)/C(=N/N=P(c2ccccc2)(c2ccccc2)c2ccccc2)c2ccccc21
EC50: > 2.34 µM | IC50: > 2.34 µM

Cc1cccc(O)c(=O)c1
outcome: inactive

O=C(Cn1c2ccc(Br)cc2c2nc3ccccc3nc21)N/N=C/c1ccccc1
EC50: > 100 µM | IC50: > 100 µM

Cc1ccc2c(c1C)CC1(Cc3c(C)ccc(C)c3C1=O)C2=O (stereo unspecified)
EC50: > 100 µM | IC50: > 100 µM

C=CCOc1cc(NC(=S)c2sccc2C)ccc1Cl
EC50: 1.45 µM | IC50: 14.5 µM

c1ccc2oc(NCCSSCCNc3nc4ccccc4o3)nc2c1
EC50: > 200 µM | IC50: 10.5 µM

Sc1ccccc1-n1c(-c2ccccc2)ccc1-c1ccccc1
EC50: > 200 µM | IC50: 151 µM and 155 µM

Clc1cccc(-c2nnc(-c3nn(-c4ccccc4)c4nc5ccccc5nc34)o2)c1
EC50: > 4.68 µM | IC50: > 4.68 µM

Nc1[nH]c(=O)[nH]c(=O)c1Cc1cccc(Cl)c1
EC50: > 200 µM | IC50: 39.8 µM

CC1=C/N\C(C#N)=C(C#N)/N=C/C(C)=C\N\C(C#N)=C(C#N)/N=C\1
EC50: > 200 µM | IC50: > 200 µM

CCc1n[nH]c(=O)n1-c1ccc2ccccc2c1
EC50: > 100 µM | IC50: > 100 µM

CC(C)=CCC[C@@H](C)C1[C@@H](OC2OC(CO)C(O)C(O)C2O)CC2(C)[C@@H]3CC(=O)C4C(C)(C)[C@@H](OC5OC(CO)C(O)C(O)C5O)CC[C@@]45C[C@@]35CC[C@]12C (stereo partly specified)
EC50: > 33.1 µM | IC50: 31.6 µM

OCc1ccc(C2CC(c3ccco3)=NN2c2ccccc2)o1 (stereo unspecified)
EC50: > 17 µM | IC50: > 17 µM

Cc1nc2[nH]ncn2c(=O)c1CCO
EC50: > 200 µM | IC50: > 200 µM

Cc1ccc(S(=O)(=O)Nc2cccc(C)c2C)cc1
outcome: inactive

NC(=O)CC[C@H]1C(=O)N=C(N)N1C(=O)OCc1ccccc1
EC50: > 200 µM | IC50: > 200 µM

NC1=NC2(COC(c3ccccc3)(c3ccccc3)c3ccccc3)OC(COC(c3ccccc3)(c3ccccc3)c3ccccc3)C(O)C2O1 (stereo unspecified)
EC50: > 200 µM | IC50: 12 µM

Cc1cc(C)nc(NC(=S)Nc2ccc(Cl)cc2)c1
EC50: > 100 µM | IC50: > 100 µM

COC1/C=C/OC2(C)Oc3c(C)c(O)c4c(O)c(c(/C=N/N5CC(C)N(Cc6ccccc6)C(C)C5)c(O)c4c3C2=O)NC(=O)C(C)=C/C=C/C(C)C(O)C(C)C(O)C(C)C(OC(C)=O)C1C (stereo unspecified)
EC50: > 200 µM | IC50: 3.09 µM

O=C1CN(c2ccc(Cl)cc2)C(=O)CN1CCN1CC(=O)N(c2ccc(Cl)cc2)CC1=O
EC50: > 200 µM | IC50: > 200 µM

CC(C)CC(=O)[O-].N.N.N.N.N.[Co+3].[O-][Cl+3]([O-])([O-])[O-]
outcome: inactive

O=C1OC(=O)C(=C\c2ccc3c(c2)OCO3)/C1=C/c1ccc2c(c1)OCO2
outcome: inactive

COCc1nc(C#N)c(N)o1
EC50: > 200 µM | IC50: > 200 µM

CC(=O)On1c(-c2ccccc2)nc2ccccc2c1=S
EC50: > 200 µM | IC50: 1.35 µM

CC1CCN(SSc2nc3ccccc3s2)CC1
EC50: 45.7 µM | IC50: 112 µM

OCCN(CCO)CCCNc1ccnc2cc(Cl)ccc12
EC50: > 200 µM | IC50: 18.2 µM

O=C1NN2CCN=C2c2ncccc21
EC50: > 933 µM | IC50: > 933 µM

CC(C)N(C(=O)C12C3C4C1(I)C1C2C3(I)C41C(=O)N(C(C)C)C(C)C)C(C)C (stereo unspecified)
EC50: > 8.51 µM | IC50: > 8.51 µM

COc1ccc(CNc2cnc3cc(N)ccc3n2)cc1OC
EC50: > 115 µM | IC50: > 115 µM

CC1=C(C(=O)NC2CCCCC2)CC(C(=O)NC2CCCCC2)=C(C)N1
EC50: > 200 µM | IC50: 72.4 µM

COc1ccc(-c2c(C)oc(=O)c(NC(=O)c3ccccc3)c2C)cc1
EC50: > 200 µM | IC50: 57.5 µM

O=C1CC2CCCC(=O)C23CCC[C@H]13 (stereo partly specified)
EC50: > 324 µM | IC50: > 324 µM

Nc1c2ccccc2nc2c1ccc1ncccc12
EC50: > 200 µM | IC50: 6.46 µM

CCN(CC)C1Oc2cc3c(cc2C(c2cccc(OC)c2O)C1C)OCO3 (stereo unspecified)
EC50: > 200 µM | IC50: 3.8 µM

O=C1CCCCN1
outcome: inactive

CC(CN(C)C)OCCn1c2c(c3ccccc31)CCCC2 (stereo unspecified)
EC50: > 200 µM | IC50: 13.5 µM

COc1cc(C2C3=C(COC3=O)Oc3cc4c(cc32)OCO4)cc(OC)c1OC(C)=O (stereo unspecified)
EC50: > 0.2 µM | IC50: 0.0324 µM

CCn1ncc(N=O)c1N
EC50: > 200 µM | IC50: > 200 µM

O=S(=O)(O)c1cc(Nc2ccnc3ccccc23)c2c(S(=O)(=O)O)cc(S(=O)(=O)O)cc2c1
EC50: > 200 µM | IC50: > 200 µM

Cn1cc(N)cc1C(=O)Nc1cc(C(=O)Nc2ccc(S(=O)(=O)O)c3cc(S(=O)(=O)O)ccc23)n(C)c1
EC50: 31.6 µM | IC50: 324 µM

COC(=O)C1CCc2c1c(=O)n1c([nH]c3ccccc31)c2C#N (stereo unspecified)
EC50: > 40.7 µM | IC50: > 40.7 µM

CCCCCCCCCCCC(=O)c1c(O)c2ccccc2oc1=O
EC50: > 200 µM | IC50: 155 µM

O=C(O)CN(CC(=O)O)C1CCCCC1N1CC(=O)OC(=O)C1 (stereo unspecified)
EC50: > 200 µM | IC50: 18.2 µM

COC(=O)C1(CCCCl)CCCN1C(=O)OC(C)(C)C (stereo unspecified)
EC50: > 200 µM | IC50: > 200 µM

C#CCOCn1cnc2c(Cl)ncnc21
EC50: > 1120 µM | IC50: 79.4 µM

CCc1nn(S(=O)(=O)c2ccc(C)cc2)c2c1CS(=O)(=O)CC2
EC50: > 200 µM | IC50: > 200 µM

CCC12CC(c3ccccc3)C(C(=O)N1)C(=O)N2 (stereo unspecified)
EC50: > 200 µM | IC50: > 200 µM

Cc1cc(C)nc(NS(=O)(=O)c2ccc(NC(=O)c3ccc4nc5ccccc5c(Nc5ccc(S(=O)(=O)N=C(N)N)cc5)c4c3)cc2)n1
EC50: 72.4 µM | IC50: 141 µM

C=CC(O)C#Cc1cnc(OC)nc1OC (stereo unspecified)
outcome: inactive

NNC(=O)CC(=O)Nc1ccc(Cl)cc1
EC50: > 200 µM | IC50: 112 µM

Cc1n[nH]c(=O)n1/N=C/c1ccc([N+](=O)[O-])cc1
EC50: > 200 µM | IC50: > 100 µM

Cn1cc(NC(=O)c2cc(N)nn2C)cc1C(=O)Nc1ccc2cc(S(=O)(=O)O)cc(S(=O)(=O)O)c2c1
EC50: > 200 µM | IC50: > 200 µM

O=[N+]([O-])C(=C(Nc1ccccc1)Nc1ccccc1)C(Cl)=C(Cl)Cl
EC50: > 200 µM | IC50: 17.4 µM

CC(Cc1ccccc1)NC1=NCCO1 (stereo unspecified)
EC50: > 200 µM | IC50: 145 µM

O=C(C[C@@H]1CCCN2CCCC[C@H]12)N1c2ccccc2Sc2ccc(Cl)cc21
EC50: > 200 µM | IC50: 20.9 µM

CCCCCCCCCCCCCCCCCCNc1nc(=O)n(C2CC(O)C(COP(=O)(O)OCC3OC(n4cc(C)c(=O)[nH]c4=O)CC3N=[N+]=[N-])O2)cc1F (stereo unspecified)
EC50: 0.759 µM | IC50: 3.63 µM

O=C1C[C@H](c2ccccc2)C2(C(=O)c3ccccc3C2=O)[C@H](c2ccccc2)C1
EC50: > 102 µM | IC50: > 102 µM

CC(C)(C)NC1C2CCC(C)(C1O)C2(C)C (stereo unspecified)
EC50: > 200 µM | IC50: > 200 µM

CC(C)(C)OC(=O)NC(Cc1ccc(O)cc1)/C(O)=C(\C#N)c1c(F)c(F)c(F)c(F)c1F (stereo unspecified)
EC50: > 200 µM | IC50: 123 µM

OC1CCC2OOC1O2 (stereo unspecified)
outcome: inactive

NCCCCC(NC(=O)OCc1ccccc1)C(=O)NCC(N)=O (stereo unspecified) (HELM PEPTIDE1{[O=C(OCc1ccccc1)[*:2]].[NCCCCC(N[*:1])C(=O)[*:2]].G.[am]}$$$$V2.0)
EC50: > 200 µM | IC50: > 200 µM

NC(CCOCCP(=O)(O)O)C(=O)O (stereo unspecified)
EC50: > 200 µM | IC50: > 200 µM

C/C(=N\NC(=O)c1ccncc1)c1cccc(/C(C)=N/NC(=O)c2ccncc2)n1.O=S(=O)([O-])[O-].[Fe+2]
EC50: > 200 µM | IC50: 16.2 µM

O=c1[nH]c2nc[nH]c2c(=O)n1C1CCCCC1
EC50: > 200 µM | IC50: > 200 µM

COc1ccccc1Nc1nc(N)nc(N)c1N=O
EC50: > 200 µM | IC50: > 200 µM

CSC1=C(C(=O)Nc2ccc(Cl)cc2)C(N)=NC1=O
EC50: > 100 µM | IC50: 74.1 µM

CCCNC(=O)N(C)S(=O)(=O)c1ccc(Cl)cc1
outcome: inactive

O=C1CCC2(CC1)SCCCS2
EC50: > 339 µM | IC50: > 339 µM
